Experimental data from PMC8305717, “4-Phenethyl-1-Propargylpiperidine-Derived Dual Inhibitors of Butyrylcholinesterase and Monoamine Oxidase B” (Molecules, 2021).
“And” between values parts separate entries of the source, which are not always exact repeats. Identical values can stand only once. “Also recorded” adds a separate entry of the source.

Molecular target: T1, hAChE (Homo sapiens, UniProt P22303)
T1 construct: gift from Xavier Brazzolotto, Florian Nachon and José Dias (IRBA, Brétigny-sur-Orge, France)
Test: Ellman method cholinesterase assay, hAChE
Assay type: biochemical
Details: residual activity at 100 µM compound; 5-min pre-incubation; RA above 50% considered inactive; read-out: RA ± SD (%) at 100 µM, hAChE
Protocol: (§1) Inhibitory potencies against human (h)AChE and hBChE were determined using the Ellman method and inhibitory potencies against hMAO-A and hMAO-B were determined with horseradish peroxidase (HRP)-Amplex Red coupled assay.
(§2) The inhibitory potencies of the compounds against the ChEs were determined using the Ellman method. 5,5′-Dithiobis (2-nitrobenzoic acid) (Ellman’s reagent; DTNB, St. Louis, MO, USA), butyrylthiocholine iodide, and acetylthiocholine iodides were from Sigma-Aldrich. Recombinant hAChE and hBChE at the stock concentration of 16.5 mg/mL and 14.5 mg/mL, respectively, were kindly donated by Xavier Brazzolotto, Florian Nachon, and José Dias (IRBA, Brétigny-sur-Orge, France). The enzyme solutions were prepared by dilution of the concentrated stocks in 0.1 M phosphate-buffered solution (pH 8.0). The reactions were carried out in a final volume of 300 µL of 0.1 M phosphate-buffered solution, pH 8.0, containing 370 µM DTNB, 500 μM butyrylthiocholine/acetylthiocholine, and approximately 1 nM or 50 pM hBChE or hAChE, respectively. The reactions were started by the addition of the substrate after 5-min pre-incubation at room temperature. For time-dependency measurements of hBChE inhibition, the pre-incubation time was varied (i.e., 1 min, 5 min, 15 min, 30 min). The final content of the organic solvent (DMSO) was always 1%. The formation of the yellow 5-thio-2-nitrobenzoate anion as a result of the reaction of DTNB with the thiocholines was monitored for 1 min as the change in absorbance at 412 nm, using a 96-well microplate reader (SynergyTM H4; BioTek Instruments, Inc., USA). The initial velocities in the presence (vi) and the absence (vo) of the test compounds were calculated. The inhibitory potencies were expressed as the residual activities, according to RA = (vi − b)/(vo − b), where b is the blank value using phosphate buffer without ChEs. […] The IC50 values were obtained by plotting the residual ChEs activities against the applied inhibitor concentrations, with the experimental data fitted to a four-parameter logistic function (GraphPad Prism 9.0; GraphPad Software Inc., San Diego, CA, USA).

T1 sequence (P22303 32-614): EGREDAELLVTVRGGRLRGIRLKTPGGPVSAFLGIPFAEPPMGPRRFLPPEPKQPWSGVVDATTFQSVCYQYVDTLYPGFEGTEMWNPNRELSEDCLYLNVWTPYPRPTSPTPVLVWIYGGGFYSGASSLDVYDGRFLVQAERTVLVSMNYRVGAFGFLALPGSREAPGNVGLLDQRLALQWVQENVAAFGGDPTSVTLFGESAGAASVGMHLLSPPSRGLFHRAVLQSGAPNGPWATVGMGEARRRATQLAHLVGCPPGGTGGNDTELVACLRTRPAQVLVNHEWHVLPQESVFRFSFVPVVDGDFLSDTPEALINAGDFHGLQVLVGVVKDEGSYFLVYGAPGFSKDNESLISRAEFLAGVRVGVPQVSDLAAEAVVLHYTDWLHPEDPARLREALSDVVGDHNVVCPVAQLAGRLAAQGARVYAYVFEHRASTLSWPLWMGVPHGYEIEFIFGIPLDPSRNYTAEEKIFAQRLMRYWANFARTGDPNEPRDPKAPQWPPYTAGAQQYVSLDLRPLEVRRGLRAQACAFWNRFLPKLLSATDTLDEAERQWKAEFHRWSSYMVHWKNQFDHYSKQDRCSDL

Row | Compound | remaining activity at 100 µM
1 | C#CCN1CCC(CCc2ccc(O)cc2)CC1 [Compound 10, 4-(2-(1-(prop-2-yn-1-yl)piperidin-4-yl)ethyl)phenol] | 61.4 ± 2.7%
2 | C#CCN1CCC(CCc2ccc(OC(=O)N(C)CC)cc2)CC1 [Compound 14, 4-(2-(1-(prop-2-yn-1-yl)piperidin-4-yl)ethyl)phenyl ethyl(methyl)carbamate] | 66.1 ± 4.8%
3 | C#CCN1CCC(CCc2cccc(OC(=O)Nc3ccccc3)c2)CC1 [Compound 13, 3-(2-(1-(prop-2-yn-1-yl)piperidin-4-yl)ethyl)phenyl phenylcarbamate] | 51.9 ± 1.4%
4 | C#CCN1CCC(CCc2cccc(OC(=O)N(C)CC)c2)CC1 [Compound 15, 3-(2-(1-(prop-2-yn-1-yl)piperidin-4-yl)ethyl)phenyl ethyl(methyl)carbamate] | 60.2 ± 1.8%
5 | C#CCN1CCC(CCc2cccc(O)c2)CC1 [Compound 11, 3-(2-(1-(prop-2-yn-1-yl)piperidin-4-yl)ethyl)phenol] | 54.7 ± 2.9%

Molecular target: T2, hBChE (Homo sapiens, UniProt P06276)
T2 construct: gift from Xavier Brazzolotto, Florian Nachon and José Dias (IRBA, Brétigny-sur-Orge, France)
Test: Ellman method cholinesterase assay, hBChE
Assay type: biochemical
Details: 5-min pre-incubation; 3 independent experiments; read-out: IC50 ± SEM, hBChE
Protocol: as §1, §2

T2 sequence (P06276 29-602): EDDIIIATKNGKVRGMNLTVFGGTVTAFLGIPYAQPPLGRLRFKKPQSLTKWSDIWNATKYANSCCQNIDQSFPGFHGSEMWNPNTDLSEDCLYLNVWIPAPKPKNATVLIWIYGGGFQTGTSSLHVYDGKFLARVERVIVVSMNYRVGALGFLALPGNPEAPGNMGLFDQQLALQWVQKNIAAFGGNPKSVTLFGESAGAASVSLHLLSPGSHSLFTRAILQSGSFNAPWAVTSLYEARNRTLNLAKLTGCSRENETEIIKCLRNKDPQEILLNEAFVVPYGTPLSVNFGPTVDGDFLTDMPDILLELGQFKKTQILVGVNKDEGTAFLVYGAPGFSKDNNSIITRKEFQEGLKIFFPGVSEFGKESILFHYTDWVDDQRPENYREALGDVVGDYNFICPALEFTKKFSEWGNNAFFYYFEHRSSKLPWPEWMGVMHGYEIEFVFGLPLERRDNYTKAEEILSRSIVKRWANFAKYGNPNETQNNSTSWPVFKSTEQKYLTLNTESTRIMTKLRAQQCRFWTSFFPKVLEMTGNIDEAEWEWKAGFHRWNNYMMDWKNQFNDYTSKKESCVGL

Row | Compound | IC50
6 | C#CCN1CCC(CCc2ccc(OC(=O)N(C)CC)cc2)CC1 [Compound 14, 4-(2-(1-(prop-2-yn-1-yl)piperidin-4-yl)ethyl)phenyl ethyl(methyl)carbamate] | 75.5 ± 8.4 µM
7 | C#CCN1CCC(CCc2cccc(OC(=O)Nc3ccccc3)c2)CC1 [Compound 13, 3-(2-(1-(prop-2-yn-1-yl)piperidin-4-yl)ethyl)phenyl phenylcarbamate] | 4.4 ± 0.8 µM
8 | C#CCN1CCC(CCc2cccc(OC(=O)N(C)CC)c2)CC1 [Compound 15, 3-(2-(1-(prop-2-yn-1-yl)piperidin-4-yl)ethyl)phenyl ethyl(methyl)carbamate] | 8.5 µM and 4.3 µM

Same assay, conditions: residual activity at 100 µM compound; 5-min pre-incubation; RA above 50% considered inactive

Row | Compound | RA ± SD (%) at 100 µM, hBChE
9 | C#CCN1CCC(CCc2ccc(O)cc2)CC1 [Compound 10, 4-(2-(1-(prop-2-yn-1-yl)piperidin-4-yl)ethyl)phenol] | 53.8 ± 0.6%
10 | C#CCN1CCC(CCc2cccc(O)c2)CC1 [Compound 11, 3-(2-(1-(prop-2-yn-1-yl)piperidin-4-yl)ethyl)phenol] | 72.9 ± 2.8%

Molecular target: T3, hMAO-A (Homo sapiens, UniProt P21397)
T3 construct: purchased Sigma Aldrich; host or cells: BTI-TN-5B1-4 insect cells
T3 sequence (P21397 1-527): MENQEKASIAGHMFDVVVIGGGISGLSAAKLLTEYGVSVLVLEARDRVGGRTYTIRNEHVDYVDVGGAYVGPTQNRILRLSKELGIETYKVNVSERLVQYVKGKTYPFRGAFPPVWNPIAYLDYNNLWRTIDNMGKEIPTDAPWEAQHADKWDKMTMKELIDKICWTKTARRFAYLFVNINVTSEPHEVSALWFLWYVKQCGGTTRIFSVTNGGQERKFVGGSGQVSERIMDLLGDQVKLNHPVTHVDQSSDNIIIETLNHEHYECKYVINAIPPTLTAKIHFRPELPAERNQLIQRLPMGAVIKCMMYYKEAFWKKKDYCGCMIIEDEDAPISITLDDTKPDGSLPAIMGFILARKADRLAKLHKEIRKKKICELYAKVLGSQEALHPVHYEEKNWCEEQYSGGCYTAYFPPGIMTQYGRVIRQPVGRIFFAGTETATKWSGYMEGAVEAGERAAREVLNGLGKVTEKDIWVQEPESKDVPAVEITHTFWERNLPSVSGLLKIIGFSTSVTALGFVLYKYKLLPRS
Test: HRP-Amplex Red coupled fluorimetric assay, hMAO-A
Assay type: biochemical
Details: 0.25 h; residual activity at 100 µM compound; 15 min incubation at 37 °C; RA above 50% considered inactive; read-out: RA ± SD (%) at 100 µM, hMAO-A
Protocol: as §1
(§3) The effects of the test compounds on hMAO were investigated using a fluorimetric assay. Recombinant hMAO, expressed in BTI-TN-5B1-4 insect cells, p-tyramine hydrochloride, and horse-radish peroxidase type II were purchased from Sigma Aldrich, whereas Amplex Red was synthesized as reported previously.
(§4) In brief, 100 µL 50 mM sodium phosphate buffer (pH 7.4, 0.05 vol.% Triton X-114) containing the compounds or the reference inhibitors and hMAO were incubated for 15 min at 37 °C. The reaction was started by adding Amplex Red (final concentration, 250 µM), horseradish peroxidase (final activity, 2 U/mL), and p-tyramine (final concentration, 1 mM). The fluorescence increase (λex = 530 nm, λem = 590 nm) at 37 °C was monitored for 20 min. DMSO was used for control experiments. To determine the blank value (b), phosphate-buffered solution replaced the enzyme. Each measurement was performed in duplicate. The inhibitory potencies were expressed as the residual activities (RA) and IC50 values as described in Section 3.2.1. For the reversibility assay, the previously described protocol was followed.

Row | Compound | remaining activity at 100 µM
11 | C#CCN1CCC(CCc2ccc(OC(=O)N(C)CC)cc2)CC1 [Compound 14, 4-(2-(1-(prop-2-yn-1-yl)piperidin-4-yl)ethyl)phenyl ethyl(methyl)carbamate] | 51.2 ± 1.5%
12 | C#CCN1CCC(CCc2cccc(OC(=O)Nc3ccccc3)c2)CC1 [Compound 13, 3-(2-(1-(prop-2-yn-1-yl)piperidin-4-yl)ethyl)phenyl phenylcarbamate] | 54 ± 0.4%
13 | C#CCN1CCC(CCc2cccc(OC(=O)N(C)CC)c2)CC1 [Compound 15, 3-(2-(1-(prop-2-yn-1-yl)piperidin-4-yl)ethyl)phenyl ethyl(methyl)carbamate] | 69.4 ± 9.4%
14 | C#CCN1CCC(CCc2cccc(O)c2)CC1 [Compound 11, 3-(2-(1-(prop-2-yn-1-yl)piperidin-4-yl)ethyl)phenol] | 63.3 ± 0.4%

Same assay, conditions: 15 min incubation at 37 °C; 3 independent experiments; read-out: IC50 ± SEM, hMAO-A

Row | Compound | IC50
15 | C#CCN1CCC(CCc2ccc(O)cc2)CC1 [Compound 10, 4-(2-(1-(prop-2-yn-1-yl)piperidin-4-yl)ethyl)phenol] | 34 ± 5.8 µM

Molecular target: T4, hMAO-B (Homo sapiens, UniProt P27338)
T4 construct: purchased Sigma Aldrich; host or cells: BTI-TN-5B1-4 insect cells
T4 sequence (P27338 1-520): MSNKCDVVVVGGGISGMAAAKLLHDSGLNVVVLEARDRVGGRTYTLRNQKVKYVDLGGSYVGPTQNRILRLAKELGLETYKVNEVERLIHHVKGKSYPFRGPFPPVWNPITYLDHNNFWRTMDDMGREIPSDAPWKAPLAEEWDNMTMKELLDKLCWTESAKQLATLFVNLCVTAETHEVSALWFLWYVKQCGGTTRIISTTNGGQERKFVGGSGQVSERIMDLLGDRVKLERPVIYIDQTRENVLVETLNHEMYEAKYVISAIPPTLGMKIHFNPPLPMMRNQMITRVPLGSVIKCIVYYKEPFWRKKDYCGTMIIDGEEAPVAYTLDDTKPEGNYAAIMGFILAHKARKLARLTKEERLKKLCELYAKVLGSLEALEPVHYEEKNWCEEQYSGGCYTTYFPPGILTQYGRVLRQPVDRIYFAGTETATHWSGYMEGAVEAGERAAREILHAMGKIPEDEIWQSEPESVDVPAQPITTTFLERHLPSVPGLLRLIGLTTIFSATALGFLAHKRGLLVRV
Test: HRP-Amplex Red coupled fluorimetric assay, hMAO-B
Assay type: biochemical
Details: 15 min incubation at 37 °C; 3 independent experiments; read-out: IC50 ± SEM, hMAO-B
Protocol: as §1, §3, §4

Row | Compound | IC50
16 | C#CCN1CCC(CCc2ccc(OC(=O)N(C)CC)cc2)CC1 [Compound 14, 4-(2-(1-(prop-2-yn-1-yl)piperidin-4-yl)ethyl)phenyl ethyl(methyl)carbamate] | 0.181 ± 0.0287 µM
17 | C#CCN1CCC(CCc2cccc(OC(=O)Nc3ccccc3)c2)CC1 [Compound 13, 3-(2-(1-(prop-2-yn-1-yl)piperidin-4-yl)ethyl)phenyl phenylcarbamate] | 23.6 ± 3 µM
18 | C#CCN1CCC(CCc2cccc(OC(=O)N(C)CC)c2)CC1 [Compound 15, 3-(2-(1-(prop-2-yn-1-yl)piperidin-4-yl)ethyl)phenyl ethyl(methyl)carbamate] | 4.3 µM and 8.5 µM
19 | C#CCN1CCC(CCc2cccc(O)c2)CC1 [Compound 11, 3-(2-(1-(prop-2-yn-1-yl)piperidin-4-yl)ethyl)phenol] | 52.5 ± 14.8 µM

Molecular target: T4, hMAO-B
Test: hMAO-B 100-fold dilution reversibility assay and IC50 shift at various pre-incubation times
Assay type: biochemical
Details: 100-fold dilution assay
Protocol: as §4
The reversibility was analyzed by one-way ANOVA and post-hoc comparisons were made using two-tailed Student’s t-test. p < 0.05—statistically significant. All data are means ± SEM (n = 2).
Figure 5 (A) A 100-fold dilution assay for hMAO-B inhibitors 12–14. L-Deprenyl was used as an irreversible inhibitor control; safinamide and isatin were used as reversible inhibitor controls. Data are mean values ± SEM (n = 2; each in quadruplicate): ∗, p < 0.05 (one-way ANOVA, with Bonferroni correction, followed by t-tests).

Row | Compound | Reversibility of hMAO-B inhibition
20 | C#CCN1CCC(CCc2ccc(OC(=O)N(C)CC)cc2)CC1 [Compound 14, 4-(2-(1-(prop-2-yn-1-yl)piperidin-4-yl)ethyl)phenyl ethyl(methyl)carbamate] | irreversible
21 | C#CCN1CCC(CCc2cccc(OC(=O)Nc3ccccc3)c2)CC1 [Compound 13, 3-(2-(1-(prop-2-yn-1-yl)piperidin-4-yl)ethyl)phenyl phenylcarbamate] | reversible

Same assay, conditions: various pre-incubation times

Row | Compound | Time-dependence of hMAO-B inhibition (IC50 shift)
22 | C#CCN1CCC(CCc2ccc(OC(=O)N(C)CC)cc2)CC1 [Compound 14, 4-(2-(1-(prop-2-yn-1-yl)piperidin-4-yl)ethyl)phenyl ethyl(methyl)carbamate] | time-dependent hMAO-B inhibition
23 | C#CCN1CCC(CCc2cccc(OC(=O)Nc3ccccc3)c2)CC1 [Compound 13, 3-(2-(1-(prop-2-yn-1-yl)piperidin-4-yl)ethyl)phenyl phenylcarbamate] | absence of IC50 shift; also recorded: did not exhibit time-dependent inhibition

Molecular target: T2, hBChE
Test: hBChE time-dependency measurements (IC50 shift, varied pre-incubation time)
Assay type: biochemical
Details: pre-incubation 1, 5, 15, 30 min
Protocol: as §2
Figure 7 The IC50 shift curves for compounds 13–15 during hBChE inhibition.

Row | Compound | Time-dependence of hBChE inhibition (IC50 shift)
24 | C#CCN1CCC(CCc2ccc(OC(=O)N(C)CC)cc2)CC1 [Compound 14, 4-(2-(1-(prop-2-yn-1-yl)piperidin-4-yl)ethyl)phenyl ethyl(methyl)carbamate] | IC50 shift was absent
25 | C#CCN1CCC(CCc2cccc(OC(=O)Nc3ccccc3)c2)CC1 [Compound 13, 3-(2-(1-(prop-2-yn-1-yl)piperidin-4-yl)ethyl)phenyl phenylcarbamate] | IC50 shift was absent
26 | C#CCN1CCC(CCc2cccc(OC(=O)N(C)CC)c2)CC1 [Compound 15, 3-(2-(1-(prop-2-yn-1-yl)piperidin-4-yl)ethyl)phenyl ethyl(methyl)carbamate] | time-dependent inhibition

System: MAO-B
Test: not given
Details: binds covalently to N5 of FAD, crystal complex; cited from earlier work

Row | Compound | MAO-B inhibition, type
27 | C#CCN1CCC(/C=C/c2ccc(F)cc2)CC1 [A] | potent and irreversible MAO-B inhibitor
